Test results: patent publication US10669334B2, “Treatment for Dupuytren's disease” (Oxford University Innovation Limited, priority 2010, dated 2020)

Assays:
palmar fibroblasts = test: Culture force monitor: isometric force contraction of collagen gels seeded with palmar fibroblasts; type: cell-based, human; details: 24 h; for isometric force contraction of palmar fibroblasts: 1 ng/ml, versus PS alone, FIG. 12 / FIG. 22
Source text: The culture force monitor (CFM) utilised and culture conditions are shown in FIGS. 3A to 3E: (A) Rectangular seeded collagen gels were cast and floated in medium, tethered between two flotation bars one of which is held stationary whilst the other is attached to a force transducer. (B) Cell-generated tensional forces in the collagen gel are detected by the force transducer, and live data are logged every 15 seconds providing a continuous output of force (dynes, […]) generated. (C) After 24 hour contraction, gels are harvested and processed for α-SMA mRNA, protein and immunofluorescence. (D) Cells were routinely seeded in gels with a high aspect-ratio collagen lattice, although low aspect-ratio lattices (E) were also used in experiments to compare effects of less strain on cell contractility. […]
Collagen gels seeded with palmar fibroblasts were cultured for 24 h with supernatants from AGE-(100 μg/ml) stimulated monocytes (M) in the absence or presence of anti TNF-α (10 μg/ml) and isometric force contraction quantified. Experiments were performed in duplicate. […]

human monocytes = test: TNF-α production by human monocytes (ELISA); type: cell-based
Experimental: LPS, a pathogen associated molecular pattern (PAMP) is shown as positive control.
The known receptors for S100A8 are the receptor for advanced glycation end products (RAGE) and the Toll-like receptors 2 and 4. Human monocytes at 1×10^5/ml were incubated in 10% FCS with human S100 A8 at 0.5 with the addition of either antibody to TLR4, TLR2 or isotype controls (not shown), or soluble RAGE (sRAGE)) over 14 hours. TNF-α levels were determined by ELISA.
It is more difficult to show in vitro that HMGB1 also acts on monocytes to lead to pro-inflammatory cytokine release. […] Our experiment, the results of which are shown in FIG. 18, involved human monocytes at 1×10^5/ml incubated in 10% FCS with HMGB1 or LPS alone or together at concentrations shown over 14 hours. TNF-α levels were determined by ELISA.

[1] = test system: non-palmar dermal fibroblasts; test: Culture force monitor: contraction rate of non-palmar dermal fibroblasts; type: cell-based, human; details: 1 ng/ml; 24 h; one patient; FIG. 22
Source text: The culture force monitor (CFM) utilised and culture conditions are shown in FIGS. 3A to 3E: (A) Rectangular seeded collagen gels were cast and floated in medium, tethered between two flotation bars one of which is held stationary whilst the other is attached to a force transducer. (B) Cell-generated tensional forces in the collagen gel are detected by the force transducer, and live data are logged every 15 seconds providing a continuous output of force (dynes, […]) generated. (C) After 24 hour contraction, gels are harvested and processed for α-SMA mRNA, protein and immunofluorescence. (D) Cells were routinely seeded in gels with a high aspect-ratio collagen lattice, although low aspect-ratio lattices (E) were also used in experiments to compare effects of less strain on cell contractility.
We then compared the effect of TNF-α on the rate of contraction on palmar skin and non-palmar skin from a Dupuytren's patient. Collagen gels seeded with palmar fibroblasts were cultured for 24 h in the absence (PS or NPS alone) or presence of TNF-α (1 ng/ml). Data are shown as +/−SD from triplicate experiments using cells from 3 patients for palmar skin and one patient non-palmar skin (**p=0.0012, ns=not significant). […]

[2] = cited from earlier work
murine bone marrow cells = test: TNF-α production by murine bone marrow cells (wild type, TLR4-/-, MyD88-/-) by ELISA; type: cell-based; details: TLR4-/- and MyD88-/- mice, FIG. 17
Experimental: In FIG. 17, TNF-α produced by murine bone marrow cells of wild type, TLR4^−/− and MyD88^−/− mice on exposure to murine S100A8 were measured by ELISA.

[3] = exposure to alarmin over tested range, FIG. 15
[4] = phase III clinical trial, Hurst et al 2009

AGEs
palmar fibroblast contraction with supernatants from AGE-stimulated monocytes (palmar fibroblasts; AGE 100 μg/ml stimulated monocyte supernatant, absence or presence of anti TNF-α 10 μg/ml, FIG. 20): stimulated palmar fibroblast contraction in a TNF-α dependent manner | contractility of palmar dermal fibroblasts (palmar fibroblasts; AGEs-BSA 150 μg/ml, FIG. 14): not affected

S100A8: Alarmin (DAMP) protein, human
TNF-α production by human monocytes (human monocytes; [3]): produced TNF-α in a dose dependent manner | receptor mediating TNF-α production by human monocytes (human monocytes; human S100 A8 at 0.5 with antibody to TLR4, TLR2 or soluble RAGE, 14 hours, FIG. 16): TLR-4 and not RAGE or TLR-2 | relative activity in TNF-α production by human monocytes (human monocytes; within the tested range, FIG. 15): more active than S100A9 and S100A12

TGF-β1: cytokine that leads to development of the myofibroblast phenotype
palmar fibroblast contractility (palmar fibroblasts; 10 ng/ml, compared to untreated palmar fibroblasts, p=0.0001, FIG. 12): significant increased palmar fibroblast contractility | contractility of human palmar fibroblasts in collagen lattice under isometric conditions (palmar fibroblasts; TGF-β1, cells from 3 patients, FIG. 21): enhanced contractility

TNF-α
isometric force contraction of palmar fibroblasts (palmar fibroblasts): significantly enhanced contraction | contraction rate of non-palmar dermal fibroblasts [1]: no change, or a slight reduction, in contraction rate

bacterial collagenase: bacterial (Clostridial) collagenase for enzymatic fasciotomy, FDA approved as Xiaflex
recurrence rates in patients with PIPJ contractures ([2]; 2 years follow-up, Badalamente et al 2007): 57% | MCPJ contractures effectively treated (to within 5° of full extension) [2, 4]: 77% | PIPJ contractures effectively treated (to within 5° of full extension) [2, 4]: 40%

B1: HMGB1: high mobility group box protein, an Alarmin (DAMP) (protein, UniProt P09429 1-215, looked up)
High mobility group protein B1: MGKGDPKKPRGKMSSYAFFVQTCREEHKKKHPDASVNFSEFSKKCSERWKTMSAKEKGKFEDMAKADKARYEREMKTYIPPKGETKKKFKDPNAPKRPPSAFFLFCSEYRPKIKGEHPGLSIGDVAKKLGEMWNNTAADDKQPYEKKAAKLKEKYEKDIAAYRAKGKPDAAKKGVVKAEKSKKKKEEEEDEEDEEDEEEEEDEEDEDEEEDDDDE
TNF-α production by human monocytes (human monocytes; HMGB1 alone, 14 hours, FIG. 18): does not stimulate TNF-α production by monocytes | TNF-α production by human monocytes (human monocytes; HMGB1 together with LPS, 14 hours, FIG. 18): active in combination with LPS | isometric force contraction of palmar fibroblasts (palmar fibroblasts): trend towards increased contraction resulting from HMGB1, this was not statistically significant

B2: S100A9: Alarmin (DAMP) protein (protein, UniProt P06702 1-114, looked up)
Protein S100-A9: MTCKMSQLERNIETIINTFHQYSVKLGHPDTLNQGEFKELVRKDLQNFLKKENKNEKVIEHIMEDLDTNADKQLSFEEFIMLMARLTWASHEKMHEGDEGPGHHHKPGLGEGTP
TNF-α production by human monocytes (human monocytes; [3]): to some extent

B3: murine S100A8: murine Alarmin S100A8 (protein, UniProt P27005 2-89, looked up)
Protein S100-A8: PSELEKALSNLIDVYHNYSNIQGNHHALYKNDFKKMVTTECPQFVQNINIENLFRELDINSDNAINFEEFLAMVIKVGVASHKDSHKE
receptor/signalling dependence of TNF-α production (murine bone marrow cells): predominantly binds to TLR-4 and that the intracellular signalling leading to TNF-α production by monocytes is entirely dependent on adaptor protein MyD88
